This is an account of results in patent US20240287070A1, “FUSED HETEROCYCLIC DERIVATIVES” (Janssen Sciences Ireland Unlimited Company, priority 2021, published 2024).

Some results are limits rather than exact numbers.

Data set [1] deals with HBV (HepG2.117 cell line, inducibly HBV producing). Kind of data set: Anti-HBV activity, intracellular HBV DNA by real-time PCR in HepG2.117 cell line. The format is cell-based, hepatitis B virus. Conditions: HepG2.117 cells, 3 days of treatment. In short, it runs like this: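 HepG2.117 cells replicate HBV under Tet-off control, without doxycycline. After induction of replication, cells were treated with serially diluted compound for 3 days, and intracellular HBV DNA was then quantified by real-time PCR with an HBV-specific primer set and probe.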

The subject of the next data set is HepG2 or HepG2.117 cells. Kind of data set: Cytotoxicity, ATPlite Luminescence Assay. Conditions: 3-days incubation unless marked with *. The format is cell-based, human. The essentials:
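Viability after compound treatment is read as ATP luminescence. Exposure lasts 3 or 4 days.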
(In general: In ATP-based viability assays light output follows the ATP content of the culture.)

The nature of data set [2]: Human liver microsome stability. The format is in vitro ADME. The note with it: pooled human liver microsomes 0.5 mg/mL, 1 μM compound, NADPH 1 mM, 37° C., 0-60 min. The essentials:
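Single incubations with human liver microsomes started with 1 mM NADPH; samples taken at 0, 5, 10, 20, 40 and 60 min, quenched in acetonitrile (1:3). Cassette LC-MS analysis with internal standard; t½ derived from slope of ln peak-area ratio versus time (k = −gradient).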
On the technique in general: Microsomes from liver hold many membrane-bound enzymes, among them those of drug oxidation.

As for `CNC(=O)C(c1ccc(OC(F)F)cc1)N1C[C@@H](C)n2nc3c(c2C1=O)CN(C(=O)c1ccc(Cl)c(Cl)c1)[C@H](C)C3` (single isomer, unassigned) [Compound 23B, (S*)-2-((3R,7R)-2-(3,4-dichlorobenzoyl)-3,7-dimethyl-10-oxo-1,3,4,7,8,10-hexahydropyrido[4′,3′:3,4]pyrazolo[1,5-a]pyrazin-9(2H)-yl)-2-(4-(difluoromethoxy)phenyl)-N-methylacetamide], it took 0.24 µM to reach a half-maximal effect in data set [1] (EC50). For the same compound, in the data set on HepG2 or HepG2.117 cells, the midpoint of cytotoxicity, the CC50, lay at 49.3 µM. The “HLM Metabolism t1/2” value in data set [2] is over 3 h.

With `CC(c1ccnc(OC(F)F)c1)N1C[C@@H](C)n2nc3c(c2C1=O)CN(C(=O)c1ccc(Cl)c(C(F)(F)F)c1)[C@H](C)C3` (single isomer, unassigned) [Compound 50B, (3R,7R)-2-(4-chloro-3-(trifluoromethyl)benzoyl)-9-((S*)-1-(2-(difluoromethoxy)pyridin-4-yl)ethyl)-3,7-dimethyl-1,2,3,4,8,9-hexahydropyrido[4′,3′:3,4]pyrazolo[1,5-a]pyrazin-10(7H)-one], the half-maximal effective concentration (EC50) in data set [1] was found to be 0.024 µM. Besides, it took 10.2 µM to reach half-maximal cytotoxicity in the data set with HepG2 or HepG2.117 cells (CC50). Also, the “HLM Metabolism t1/2” value in data set [2] was over 3 h.

In turn, `CC(c1cnc(C(C)(C)O)nc1)N1C[C@@H](C)n2nc3c(c2C1=O)CN(C(=O)c1ccc(Cl)c(C(F)(F)F)c1)[C@H](C)C3` (single isomer, unassigned) [Compound 35B, (3R,7R)-2-(4-chloro-3-(trifluoromethyl)benzoyl)-9-((S*)-1-(2-(2-hydroxypropan-2-yl)pyrimidin-5-yl)ethyl)-3,7-dimethyl-1,2,3,4,8,9-hexahydropyrido[4′,3′:3,4]pyrazolo[1,5-a]pyrazin-10(7H)-one] yielded a half-maximal effective concentration (EC50) in data set [1] of 0.01 µM. The compound further came in with a CC50 in the data set with HepG2 or HepG2.117 cells of over 50 µM. In addition, the “HLM Metabolism t1/2” value in data set [2] is over 3 h.

Consider `CC(c1ccc(C(C)(C)O)nc1)N1C[C@@H](C)n2nc3c(c2C1=O)CN(C(=O)c1cc(Cl)c(Cl)cn1)[C@H](C)C3` (single isomer, unassigned) [Compound 57B, (3R,7R)-2-(4,5-dichloropicolinoyl)-9-((S*)-1-(6-(2-hydroxypropan-2-yl)pyridin-3-yl)ethyl)-3,7-dimethyl-1,2,3,4,8,9-hexahydropyrido[4′,3′:3,4]pyrazolo[1,5-a]pyrazin-10(7H)-one], for which, in data set [1], the EC50 stood at 0.65 µM. Besides, in the data set on HepG2 or HepG2.117 cells, the CC50 was over 50 µM. Moreover, the “HLM Metabolism t1/2” value in data set [2] was 1.68 h.

The compound `CC(c1ccc(N2CCCC2=O)cc1)N1C[C@@H](C)n2nc3c(c2C1=O)CN(C(=O)c1ccc(Cl)c(C#N)c1)[C@H](C)C3` (single isomer, unassigned) [Compound 9B, 2-Chloro-5-((3R,7R)-3,7-dimethyl-10-oxo-9-((S*)-1-(4-(2-oxopyrrolidin-1-yl)phenyl)ethyl)-1,2,3,4,7,8,9,10-octahydropyrido[4′,3′:3,4]pyrazolo[1,5-a]pyrazine-2-carbonyl)benzonitrile] had an EC50 in data set [1] of 0.02 µM. Also, the CC50 with HepG2 or HepG2.117 cells was over 50 µM. Moreover, the “HLM Metabolism t1/2” value in data set [2] is 1.83 h.

In data set [1], `CC(c1cc(F)ccn1)N1C[C@@H](C)n2nc3c(c2C1=O)CN(C(=O)c1ccc(Cl)c(Cl)c1)[C@H](C)C3` (single isomer, unassigned) [Compound 32B] had an EC50 of 0.088 µM. In the data set with HepG2 or HepG2.117 cells, this compound gave a CC50 of over 50 µM. For the same compound, the “HLM Metabolism t1/2” value in data set [2] was 2.23 h.

In data set [1], `C[C@@H]1Cc2nn3c(c2CN1C(=O)c1ccc(Cl)c(C(F)(F)F)c1)C(=O)N([C@H](C)c1ccc([S@@]2(=O)=NCCC2)nc1)C[C@H]3C` (relative stereo) [Compound 30A, (3R,7R)-2-(4-chloro-3-(trifluoromethyl)benzoyl)-3,7-dimethyl-9-((R*)-1-(6-((R*)-1-oxido-4,5-dihydro-3H-116-isothiazol-1-yl)pyridin-3-yl)ethyl)-1,2,3,4,8,9-hexahydropyrido[4′,3′:3,4]pyrazolo[1,5-a]pyrazin-10(7H)-one] gave a 50% effective concentration (EC50) of 0.14 µM. In the data set on HepG2 or HepG2.117 cells, this compound gave a half-maximal cytotoxic concentration (CC50) of over 50 µM. In addition, the “HLM Metabolism t1/2” value in data set [2] came to 0.495 h.

With `CC(c1ccn(CC(F)(F)F)c(=O)c1)N1C[C@@H](C)n2nc3c(c2C1=O)CN(C(=O)c1ccc(Cl)c(Cl)c1)[C@H](C)C3` (single isomer, unassigned) [Compound 51B, (3R,7R)-2-(3,4-dichlorobenzoyl)-3,7-dimethyl-9-((S*)-1-(2-oxo-1-(2,2,2-trifluoroethyl)-1,2-dihydropyridin-4-yl)ethyl)-1,2,3,4,8,9-hexahydropyrido[4′,3′:3,4]pyrazolo[1,5-a]pyrazin-10(7H)-one], the EC50 in data set [1] worked out at 0.028 µM. The CC50 in the data set on HepG2 or HepG2.117 cells was over 50 µM. For the same compound, the “HLM Metabolism t1/2” value in data set [2] is over 3 h.

Consider `CC(c1cnc(C(C)(C)O)cn1)N1C[C@@H](C)n2nc3c(c2C1=O)CN(C(=O)c1ccc(Cl)c(C(F)(F)F)c1)[C@H](C)C3` (single isomer, unassigned) [Compound 41B, (3R,7R)-2-(4-chloro-3-(trifluoromethyl)benzoyl)-9-((S*)-1-(5-(2-hydroxypropan-2-yl)pyrazin-2-yl)ethyl)-3,7-dimethyl-1,2,3,4,8,9-hexahydropyrido[4′,3′:3,4]pyrazolo[1,5-a]pyrazin-10(7H)-one], for which the concentration giving a half-maximal response (EC50) in data set [1] came to 0.014 µM. The compound also showed a 50% cytotoxic concentration (CC50) with HepG2 or HepG2.117 cells of over 50 µM. Besides, in data set [2], the “HLM Metabolism t1/2” value stood at 1.65 h.

On to `CC(c1ccc(S(C)(=O)=O)cc1)N1C[C@@H](C)n2nc3c(c2C1=O)CN(C(=O)c1ccc(Cl)c(Cl)c1)[C@H](C)C3` (single isomer, unassigned) [Compound 15B, (3R,7R)-2-(3,4-dichlorobenzoyl)-3,7-dimethyl-9-((S*)-1-(4-(methylsulfonyl)phenyl)ethyl)-1,2,3,4,8,9-hexahydropyrido[4′,3′:3,4]pyrazolo[1,5-a]pyrazin-10(7H)-one], for which, in data set [1], the EC50 was 0.019 µM. This compound also had a CC50 in the data set with HepG2 or HepG2.117 cells of over 50 µM. In addition, the “HLM Metabolism t1/2” value in data set [2] was over 3 h.

`CC(c1ccn(CC(F)(F)F)n1)N1C[C@@H](C)n2nc3c(c2C1=O)CN(C(=O)c1ccc(Cl)c(C#N)c1)[C@H](C)C3` (single isomer, unassigned) [Compound 42A, 2-chloro-5-((3R,7R)-3,7-Dimethyl-10-oxo-9-((R*)-1-(1-(2,2,2-trifluoroethyl)-1H-pyrazol-3-yl)ethyl)-1,2,3,4,7,8,9,10-octahydropyrido[4′,3′:3,4]pyrazolo[1,5-a]pyrazine-2-carbonyl)benzonitrile] came in with an EC50 in data set [1] of 0.12 µM. Besides, the CC50 with HepG2 or HepG2.117 cells was over 50 µM. The “HLM Metabolism t1/2” value in data set [2] is over 3 h.

In data set [1], `CC(c1ncccn1)N1C[C@@H](C)n2nc3c(c2C1=O)CN(C(=O)c1ccc(Cl)c(Cl)c1)[C@H](C)C3` (single isomer, unassigned) [Compound 39B, (3R,7R)-2-(3,4-dichlorobenzoyl)-3,7-dimethyl-9-((S*)-1-(pyrimidin-2-yl)ethyl)-1,2,3,4,8,9-hexahydropyrido[4′,3′:3,4]pyrazolo[1,5-a]pyrazin-10(7H)-one] gave an EC50 of 0.035 µM. The same compound registered a CC50 in the data set with HepG2 or HepG2.117 cells of over 25 µM. The “HLM Metabolism t1/2” value in data set [2] is over 3 h.

`CC(c1ccc(C(C)(C)O)nc1)N1C[C@@H](C)n2nc3c(c2C1=O)CN(C(=O)c1ccc(Cl)c(C#N)c1)[C@H](C)C3` (single isomer, unassigned) [Compound 63B, 2-chloro-5-((3R,7R)-9-((S*)-1-(6-(2-hydroxypropan-2-yl)pyridin-3-yl)ethyl)-3,7-dimethyl-10-oxo-1,2,3,4,7,8,9,10-octahydropyrido[4′,3′:3,4]pyrazolo[1,5-a]pyrazine-2-carbonyl)benzonitrile] returned an EC50 in data set [1] of 0.052 µM. In addition, in the data set with HepG2 or HepG2.117 cells, the CC50 was over 50 µM. The “HLM Metabolism t1/2” value in data set [2] was over 3 h.

For the compound `CC(c1cc(F)c(=O)n(C2CC2)c1)N1C[C@@H](C)n2nc3c(c2C1=O)CN(C(=O)c1ccc(Cl)c(Cl)c1)[C@H](C)C3` (single isomer, unassigned) [Compound 46B, (3R,7R)-9-((S*)-1-(1-cyclopropyl-5-fluoro-6-oxo-1,6-dihydropyridin-3-yl)ethyl)-2-(3,4-dichlorobenzoyl)-3,7-dimethyl-1,2,3,4,8,9-hexahydropyrido[4′,3′:3,4]pyrazolo[1,5-a]pyrazin-10(7H)-one], the EC50 in data set [1] is 0.031 µM. In the data set with HepG2 or HepG2.117 cells, the CC50 was over 50 µM. Moreover, the “HLM Metabolism t1/2” value in data set [2] is over 3 h.

With `C[C@@H]1Cc2nn3c(c2CN1C(=O)c1ccc(Cl)c(C(F)(F)F)c1)C(=O)N([C@H](C)c1ccc([S@]2(=O)=NCCC2)nc1)C[C@H]3C` (relative stereo) [Compound 30C, (3R,7R)-2-(4-chloro-3-(trifluoromethyl)benzoyl)-3,7-dimethyl-9-((R*)-1-(6-((S*)-1-oxido-4,5-dihydro-3H-116-isothiazol-1-yl)pyridin-3-yl)ethyl)-1,2,3,4,8,9-hexahydropyrido[4′,3′:3,4]pyrazolo[1,5-a]pyrazin-10(7H)-one], in data set [1], a half-maximal response (EC50) required 0.31 µM. In the data set with HepG2 or HepG2.117 cells, this compound registered a CC50 of over 50 µM. Further, the “HLM Metabolism t1/2” value in data set [2] amounted to 0.685 h.

As for `CC(c1cnc(C(F)(F)F)nc1)N1C[C@@H](C)n2nc3c(c2C1=O)CN(C(=O)c1ccc(Cl)c(Cl)c1)[C@H](C)C3` (single isomer, unassigned) [Compound 34B, (3R,7R)-2-(3,4-dichlorobenzoyl)-3,7-dimethyl-9-((S*)-1-(2-(trifluoromethyl)pyrimidin-5-yl)ethyl)-1,2,3,4,8,9-hexahydropyrido[4′,3′:3,4]pyrazolo[1,5-a]pyrazin-10(7H)-one], it took 0.052 µM to reach a half-maximal effect in data set [1] (EC50). Besides, in the data set on HepG2 or HepG2.117 cells, the CC50 is 34.9 µM. Further, the “HLM Metabolism t1/2” value in data set [2] is over 3 h.

For orientation: EC50 means the concentration that produces a half-maximal response. Low readings indicate an effect from little substance, high ones a need for much substance. What is called CC50 is the concentration giving 50% cytotoxicity. Lower therefore signals harm at low concentration.
